Key:
[1] = target: Epidermal growth factor receptor (Homo sapiens, UniProt P00533, L858R); assay: Inhibition of EGFR L858R mutant (unknown origin) using Tyr 4 peptide as substrate after 1.5 hrs by FRET-based Z'-LYTE assay; assay type: protein assay
[2] = target: Epidermal growth factor receptor (Homo sapiens, UniProt P00533); assay: Inhibition of wild type EGFR (unknown origin) using Tyr 4 peptide as substrate after 1.5 hrs by FRET-based Z'-LYTE assay
[3] = Antiproliferative activity against gefitinib-sensitive human HCC827 cells harboring EGFR E746 to A750 deletion after 72 hrs by MTS assay; assay type: functional, cell-based; conditions: HCC827, 72 h
NCI-H1975 = assay: cells; assay type: functional, cell-based; conditions: Homo sapiens, NCI-H1975, 72 h
[4] = target: Epidermal growth factor receptor (Homo sapiens, UniProt P00533, L858R/T790M); assay: (§1) Inhibition of EGFR T790M/L858R double mutant (unknown origin) using Tyr 4 peptide as substrate after 1.5 hrs by FRET-based Z'-LYTE assay; assay type: protein assay
[5] = target: Epidermal growth factor receptor (Homo sapiens, UniProt P00533, T790M/L858R); assay: as §1; assay type: protein assay

Compound | IC50 ([1]; read-out: IC50) [nM] | IC50 ([2]; read-out: IC50) [nM] | IC50 [3] [nM] | IC50 (NCI-H1975) [µM] | IC50 [4] [nM] | IC50 [1] | IC50 [2] | IC50 [5]
C=CC(=O)Nc1ccc(-n2c(=O)cnc3cnc(Nc4ccc(N5CCN(C)CC5)cc4)nc32)cc1 | 1510 | 1100 | 2370 | 6.15 | 691 | – | – | –
COc1ccc(Nc2ncc3ncc(=O)n(-c4cccc(NC(=O)/C=C/CN(C)C)c4)c3n2)cc1 | 32800 | 26300 | 917 | 0.559 | 56200 | – | – | –
C=CC(=O)Nc1cccc(-n2c(=O)cnc3cnc(Nc4ccc(C(N)=O)cc4)nc32)c1 | 11.8 | 12.1 | 511 | 8.48 | 3.97 | – | – | –
C=CC(=O)Nc1ccc(-n2c(=O)cnc3cnc(Nc4ccc(Cl)cc4)nc32)cc1 | 496 | 374 | > 10000 | > 10 | 144 | – | – | –
COc1ccc(Nc2ncc3ncc(=O)n(-c4ccc(NC(=O)/C=C/CN(C)C)cc4)c3n2)cc1 | 76.5 | 59.1 | 8380 | > 10 | 31.3 | – | – | –
C=CC(=O)Nc1cccc(-n2c(=O)cnc3cnc(Nc4ccc(N5CCOCC5)cc4)nc32)c1 | 7.26 | 6.95 | 15.2 | 0.255 | 2.86 | – | – | –
COc1ccc(Nc2ncc3ncc(=O)n(-c4ccc(N)cc4)c3n2)cc1 | – | – | > 10000 | > 10 | – | Not Active | Not Active | Not Active
C=CC(=O)Nc1cccc(-n2c(=O)cnc3cnc(Nc4ccc(N5CCN(C)CC5)cc4)nc32)c1 | 1.32 | 1.21 | 4.02 | 0.0622 | 0.677 | – | – | –
C=CC(=O)Nc1ccc(-n2c(=O)cnc3cnc(Nc4ccc(OC)cc4)nc32)cc1 | 23700 | 5130 | 1690 | 2.2 | 4800 | – | – | –
C=CC(=O)Nc1cccc(-n2c(=O)cnc3cnc(Nc4ccc(N(CC)CC)cc4)nc32)c1 | 14.1 | 14.5 | 44.5 | 4.09 | 4.72 | – | – | –
COc1ccc(-n2c(=O)cnc3cnc(Nc4ccc(N)cc4)nc32)cc1 | 8450 | 25800 | > 10000 | > 10 | – | – | – | –
C=CC(=O)Nc1cccc(-n2c(=O)cnc3cnc(Nc4ccc(OC)cc4)nc32)c1 | 14.8 | 13.8 | 9.49 | 0.0638 | 5.6 | – | – | –
C=CC(=O)Nc1ccc(-n2c(=O)cnc3cnc(Nc4ccc(N5CCOCC5)cc4)nc32)cc1 | 8670 | 5590 | 7160 | > 10 | 3460 | – | – | –
CN(C)C/C=C/C(=O)Nc1ccc(-n2c(=O)cnc3cnc(Nc4ccccc4)nc32)cc1 | – | – | 5010 | > 10 | – | Not Active | Not Active | Not Active
